Source: patent US20030144295A1, “Treatment for ischemic stroke” (YAMANOUCHI PHARMACEUTICAL CO., LTD., priority 2001, published 2003)

Columns and labels:
[1] = system: rat embolic stroke models; experiment: Infarct volume (TTC staining) in rat embolic stroke models, Example 1; format: in vivo, rat (male Sprague-Dawley); conditions: 24 hours after blood clot injection; administration started 2 hours after clot; alteplase 10 mg/kg i.v., compound A 20 mg/kg/hour i.v. for 4 hours; n=8; control 361.2±20.9
Procedure: FIG. 1: Effect of a combined use of compound A with alteplase on infarct volume in rat embolic stroke models. Administration of compound A (20 mg/kg/hr; i.v. for 4 hours) and alteplase (10 mg/kg; i.v.; 10% of the total dose was subjected to an intravenous bolus administration while the remainder (90%) was subjected to an intravenous administration continuously over 1 hour) was initiated 2 hours after the injection of blood clot. After 24 hours from the infusion of the blood clot, the brain was excised, sliced and stained with TTC. The data in the drawing show a mean value±standard error (n=8). The symbol * means a statistically significant difference from a control group or an alteplase-administered group (*p<0.05; Dunnett's test or t-test). […]
(§1) Evaluation of formation of cerebral embolism by injection of blood clot was carried out using a laser Doppler flowmetry (FloC1; Omegawave) and the cerebral blood flow decreased to a level of 30% or less of the blood clot value immediately after ischemia was taken as a positive evidence of embolism formation. […] The cerebral blood flow was monitored until 30 minutes after infusion of the blood clot and the blood flow of 30 minutes after ischemia was confirmed to-remain 50% or less than the value prior to the injection of the blood clot. […]

[2] = system: rat embolic stroke models; experiment: Neurological symptoms (Bederson score) in rat embolic stroke models, Example 1; format: in vivo, rat (male Sprague-Dawley); conditions: Bederson score 0-3, 24 hours after blood clot injection; administration started 2 hours after clot; alteplase 10 mg/kg i.v., compound A 20 mg/kg/hour for 4 hours; n=8; control 2.5
Procedure: FIG. 2: Effect of a combined use of compound A with alteplase on neurological symptoms in rat embolic stroke models. Administration of zonampanel (20 mg/kg/hr; i.v. for 4 hours) and alteplase (10 mg/kg; i.v.; 10% of the total dose was subjected to an intravenous bolus administration while the remainder (90%) was subjected to an intravenous administration continuously over 1 hour) was initiated 2 hours after the injection of blood clot. After 24 hours from the injection of the blood clot, the neurological symptoms were observed. Data in the drawing show the data derived from each animal (n=8). The symbol * means a statistically significant difference from a control group or an alteplase-administered group (*p<0.05; Steel's test or Wilcoxon-test). […]
as §1

[3] = system: AMPA receptor; conditions: cited from earlier work
[4] = cited from earlier work

| Compound | infarct volume (mean value±standard error) [1] [mm^3] | neurological symptom score (median value) [2] | AMPA binding activity [3] | solubility in water [4] |
| --- | --- | --- | --- | --- |
| O=C(O)Cn1c(=O)c(=O)[nH]c2cc([N+](=O)[O-])c(-n3ccnc3)cc21 [compound A, [7-(1H-imidazol-1-yl)-6-nitro-2,3-dioxo-3,4-dihydroquinoxalin-1(2H)-yl]acetic acid] | 194.6±50.6 | 2 | strong and selective | high |
| Alteplase [reference compound] | 202.7±49.3 | – | – | – |
